ChEMBL document CHEMBL1130163, “Synthesis and inhibition studies of sulfur-substituted squalene oxide analogues as mechanism-based inhibitors of 2,3-oxidosqualene-lanosterol cyclase” (J Med Chem, 1997)

Target: T1, Lanosterol synthase (Rattus norvegicus, UniProt P48450)
T1 sequence (P48450 whole entry): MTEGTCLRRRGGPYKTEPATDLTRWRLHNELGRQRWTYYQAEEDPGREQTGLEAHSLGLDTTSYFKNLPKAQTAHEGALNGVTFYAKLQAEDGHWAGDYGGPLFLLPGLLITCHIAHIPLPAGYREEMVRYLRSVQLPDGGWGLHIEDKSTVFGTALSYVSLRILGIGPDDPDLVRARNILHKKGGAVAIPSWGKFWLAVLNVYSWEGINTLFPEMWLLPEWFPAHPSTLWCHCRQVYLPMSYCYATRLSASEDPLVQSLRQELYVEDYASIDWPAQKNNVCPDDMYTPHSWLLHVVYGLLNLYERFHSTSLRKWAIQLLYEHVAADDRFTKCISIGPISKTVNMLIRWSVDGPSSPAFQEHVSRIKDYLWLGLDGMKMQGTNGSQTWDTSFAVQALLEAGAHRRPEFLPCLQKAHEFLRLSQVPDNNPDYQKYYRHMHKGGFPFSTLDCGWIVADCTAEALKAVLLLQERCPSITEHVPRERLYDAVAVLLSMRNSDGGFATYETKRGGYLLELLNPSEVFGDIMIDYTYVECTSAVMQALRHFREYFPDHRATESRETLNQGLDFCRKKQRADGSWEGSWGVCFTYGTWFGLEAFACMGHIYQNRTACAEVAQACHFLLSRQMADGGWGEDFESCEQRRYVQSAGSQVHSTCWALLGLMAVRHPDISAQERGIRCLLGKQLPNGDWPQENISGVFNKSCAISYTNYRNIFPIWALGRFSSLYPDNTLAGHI
Assay: Inhibition against rat liver Oxidosqualene-lanosterol cyclase

CC(C)=CCCC1(C)OC1CC/C(C)=C/CC/C=C(\C)CCCC(C)CCC1OC1C (stereo unspecified)
IC50: 110 nM
